Reference: PubChem BioAssay (NCI)
“And” between values parts separate entries of the source, which are not always exact repeats. Identical values can stand only once.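 Values below derive from 48-hour exposures of cells grown in 96-well plates, with endpoints linearly interpolated between the two concentrations bracketing the appropriate inhibition level. GI50 marks 50% less growth. The concentration for full growth arrest is given as TGI.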

How the values were obtained:
Experiment in all cases: NCI tumour cell line growth inhibition, 48 h
[1] = tested on: HL-60(TB) leukemia
[2] = tested on: T-47D breast
[3] = tested on: KM12 colon
[4] = tested on: NCI-H23 lung
[5] = tested on: MDA-MB-435
[6] = tested on: COLO 205 colon
[7] = tested on: HT29 colon
[8] = tested on: SNB-19 CNS
[9] = tested on: UACC-257 melanoma
[10] = tested on: NCI-H460 lung

SMILES	GI50 [1] [µM]	TGI [1] [µM]	GI50 [2] [µM]	TGI [2] [µM]	GI50 [3]	TGI [3]	GI50 [4] [µM]	TGI [4] [µM]	GI50 [5]	TGI [5] [µM]	GI50 [6]	TGI [6] [µM]	GI50 [7] [µM]	TGI [7] [µM]	GI50 [8] [µM]	TGI [8] [µM]	GI50 [9] [µM]	TGI [9] [µM]	GI50 [10] [µM]	TGI [10] [µM]
CCN(CC)c1ccc2nc3c4ccccc4c(=NC(=O)c4ccccc4-c4c5ccc(N(CC)CC)cc5[o+]c5cc(N(CC)CC)ccc45)cc-3oc2c1	2.96	> 100	5.25	17.3	2.25 µM	7.94 µM	1.88	6.13	1.93 µM	4.33	1.59 µM	3.83	2.73	> 32.2	2.3	6.64	1.46	3.4	2.29	10.1
COc1cnc2c(c1)C(=O)c1c-2n(CCCN2CCN(CCO)CC2)c(=O)c2cc([N+](=O)[O-])ccc12	1.69	5.27	12.8	46.5	1.74 µM	4.41 µM	1.27	3.33	1.97 µM	4.66	1.18 µM	5.13	1.24	2.63	2.38	12.4	2.26	6.87	0.267	1.45
CNCCOc1nc2c3cnccc3cc(-c3cc(OC)c(OC)c(OC)c3)c2c2ccncc12	< 0.0153	0.0685	0.0296	0.48	0.0536 µM	2.52 µM	0.0278	0.161	0.115 µM	0.327	0.0575 µM	0.698	0.0372	1.07	0.0253	0.349	0.13	0.728	< 0.01	0.103
c1cnc2c(c1)Nc1cnncc1S2	–	> 100	–	> 100	–	> 100 µM	–	> 100	–	> 100	–	> 100	–	> 100	–	> 100	–	> 100	–	> 100
C=C=[CH][Sn]([c]1ccccc1)([c]1ccccc1)[c]1ccccc1	1.78	4.57	1.29	2.82	1.49 µM	2.95 µM	1.58	3.47	1.3 µM	2.68	1.52 µM	2.87	1.21	2.45	1.81	3.34	1.63	3.05	1.44	3.02
CC(C)N(C[C@H]1O[C@@H](n2cnc3c(N)ncnc32)[C@H](O)[C@@H]1O)C1CC(CCc2nc3ccc(C(C)(C)C)cc3[nH]2)C1 (stereo not given in full)	> 65.9	> 100	68.5	> 100	> 100 µM	> 100 µM	> 100	> 100	> 54.7 µM	> 100	38.5 µM	> 100	94.8	> 100	> 100	> 100	> 58.7	> 100	> 100	> 100
CN(C)CCOc1nc2ccccc2c2c1-c1ccc(Cl)cc1C2=O	0.933	3.37	1.53	4.55	0.441 µM	1.57 µM	1.14	4.04	0.489 µM	1.88	0.443 µM	1.72	0.453	1.63	0.46	2.14	1.25	2.97	0.365	1.3
O=C(CC1(O)C(=O)Nc2c(Cl)ccc(Cl)c21)c1ccc(C2CC2)cc1 (stereo not given)	0.318	10.3	1.56	27.1	0.445 µM	15.9 µM	0.772	23.1	0.0882 µM	0.272	0.801 µM	3.06	0.586	2.22	1.13	16.9	2.48	24.7	0.622	9
Nc1cccc2nsnc12	–	26.7	–	> 100	–	> 100 µM	–	> 100	–	> 100	–	> 100	–	> 100	–	> 100	–	> 100	–	> 100
CCNCCNc1cc(-c2cccc(C(F)(F)F)c2)c(C#N)c2nc3ccccc3n12	2.23	4.21	2.2	4.21	1.63 µM	3.13 µM	1.75	3.53	1.52 µM	2.88	0.557 µM	1.99	1.24	2.65	1.99	3.97	1.81	3.26	0.457	1.81
Cc1ccc(-c2cc(/C=N/O)on2)cc1	26.5	> 100	29.5	> 100	35.6 µM	> 100 µM	73.1	> 100	52.1 µM	> 100	49.9 µM	> 100	48.4	> 100	> 100	> 100	67.5	> 100	63.6	> 100
C=C1CO[C@@H]2C[C@@H]1CC/C(C)=C/CC/C(C)=C/CC[C@@]2(C)O	1.17	11.2	18.3	42.8	17.4 µM	36 µM	21.8	44.6	20.9 µM	42.2	27.3 µM	> 60.9	28.4	94.1	23.3	51.6	16.8	39.1	24.1	> 68.3
O=[N+]([O-])c1ccc(-c2ccccc2)c([As](=O)(O)O)c1	43.5	> 100	4.35	49.5	39.4 µM	> 100 µM	18.9	88.2	21.9 µM	> 100	12.8 µM	27.4	13.5	32.2	18.7	> 100	21.7	> 100	28	> 100
CS(=O)(=O)c1nc(Cl)c(Cl)c(C#N)c1Cl	–	> 100	–	4.83	–	17.6 µM	–	9	–	7	–	3.08	–	4.35	–	36	–	5.52	–	32.4
NC(=O)NC(=O)C1CCCCC1C(=O)O (stereo not given)	–	> 100	–	> 100	–	> 100 µM	–	> 100	–	> 100	–	> 100	–	> 100	–	> 100	–	> 100	–	> 100
CCOC(=O)C(Cc1ccc(OC)cc1)C(=O)OCC	2.26	8.39	2.8	12.4	3.01 µM	9.85 µM	3.63	14.9	3.97 µM	18	7.23 µM	19.7	4.15	25.4	4.82	17.4	3.31	16.3	4.12	15.1
C/C(=N\Nc1cccc(Cl)n1)c1ccccn1	0.446	3.94	1.09	13.1	0.548 µM	> 100 µM	1.28	> 37.6	1.78 µM	> 100	0.38 µM	> 21.5	0.909	> 100	1.23	> 100	2.27	7.51	0.482	8.33
COc1cc(/C=C/C(=O)c2ccc(Nc3nc(Nc4ccccc4)nc(Nc4ccc(Cl)cc4)n3)cc2)cc(OC)c1OC	1.18	11.3	3.03	> 32.5	8.83 µM	> 32.5 µM	11.9	> 32.5	11.3 µM	> 32.5	8.55 µM	> 32.5	5.39	> 32.5	> 32.5	> 32.5	> 32.5	> 32.5	8.71	> 32.5
O=C1c2cccc3cc([N+](=O)[O-])cc(c23)C(=O)N1O	–	> 100	–	> 100	–	61.7 µM	–	> 100	–	> 100	–	> 100	–	> 100	–	> 100	–	> 100	–	> 100
COc1ccc(C2C3=C(COC3=O)N(CCO)c3cc4c(cc32)OCCO4)cc1OC (stereo not given)	1.28	5.65	2.17	> 50	1.35 µM	> 38.7 µM	2.25	> 50	0.255 µM	1.78	1.34 µM	3.62	1.64	> 14.9	–	> 30.5	2.4	> 50	1.84	> 18.9
N#CC[C@H](C1CCCC1)n1cc(-c2ncnc3[nH]ccc23)cn1	22.7	60.6	23.8	> 91.1	2.71 µM	> 62.6 µM	19.6	75.7	26.4 µM	> 93.2	24.6 µM	67.1	19.7	41.5	35.2	> 100	44.2	> 100	14.4	> 100
COc1cc2c3c(c1O)C1(C=CC(=O)C=C1)CC3N(C)CC2 (stereo not given)	–	10.9	–	26.2	–	17.5 µM	–	31.5	–	23	–	18.2	–	23.4	–	27.9	–	27.7	–	18.3
ClC1=C(Cl)C(Cl)=C(Cl)C1=Cc1ccc(Cl)cc1	1.21	5.86	0.484	2.04	0.844 µM	2.38 µM	0.796	2.85	0.507 µM	2.95	0.406 µM	1.52	0.27	0.735	1.07	2.42	1.37	3.3	0.726	2.18
C[C@@H](Oc1cc(-c2cnn(C3CC4(CCCNC4)C3)c2)cnc1N)c1c(Cl)ccc(F)c1Cl (stereo not given in full)	1.16	3.01	1.61	3.42	0.0485 µM	1.32 µM	1.14	3.41	0.77 µM	2.18	0.384 µM	1.5	0.607	2.3	3.32	14.4	1.45	2.88	0.826	2.53
CC[C@@]1(OC(=O)CN)C(=O)OCc2c1cc1n(c2=O)Cc2cc3c(N)c4c(cc3nc2-1)OCO4	< 0.0001	0.111	–	> 100	0.0136 µM and 0.0192 µM	0.182 µM and 1.27 µM	< 0.0001	–	0.00328 µM and 0.0183 µM	–	0.0419 µM and 0.11 µM	0.961	–	> 100	0.000124	> 100	0.0158	0.228	< 0.0001	–
O=C(Nc1ccc(S(=O)(=O)NC2CCCCCC2)cc1)C(c1ccccc1)S(=O)(=O)c1ccc(F)cc1 (stereo not given)	0.357	2.51	0.717	4.83	0.321 µM	1.96 µM	0.187	0.933	0.313 µM	1.43	–	–	0.214	1.56	0.622	37.2	0.621	2.98	0.0367	1.1
CCS/C(Nc1ccccc1)=C(\C#N)C(=O)N/N=C/c1ccc(Cl)cc1Cl	3.2	> 100	4.03	> 100	4.04 µM	> 100 µM	6.47	> 100	0.419 µM	2.23	–	–	3.7	> 100	4.17	> 100	25.7	> 100	3.16	> 100
